Measurements published in ChEMBL document CHEMBL4312024, “Optimization of piperazine-derived ureas privileged structures for effective antiadenovirus agents” (Eur J Med Chem, 2020).
Active and inactive are the calls of the source. No cut-off for these calls is given here.

Tests used:
Human adenovirus 5 [1] = assay: Antiviral activity against Human adenovirus 5 infected in A549 cells assessed as nuclear associated viral DNA copies at 50 uM incubated for 45 mins by qRT-PCR analysis; type: functional, organism-based
Human adenovirus 5 [2] = assay: Antiviral activity against Human adenovirus 5 infected in HEK293beta5 cells coexpressing GFP assessed as inhibition of plaque formation incubated for 7 days; type: functional, organism-based; conditions: Human mastadenovirus C, 168 h
Human adenovirus 5 [3] = assay: Antiviral activity against Human adenovirus 5 infected in A549 cells assessed as fold reduction in virus yield at 50 uM incubated for 48 hrs by endpoint dilution method relative to control; type: functional
Human betaherpesvirus 5 = assay: Antiviral activity against Human cytomegalovirus infected in MRC5 cells assessed as decrease in viral DNA copies at 50 uM incubated for 72 hrs by qRT-PCR analysis; type: functional, organism-based
[4] = Selectivity Index, ratio of CC50 for human A549 cells to IC50 for Human adenovirus 5 infected in HEK293beta5 cells coexpressing GFP; type: toxicity, cell-based; conditions: read-out: Ratio CC50/IC50
Human adenovirus 5 [5] = assay: Antiviral activity against Human adenovirus 5 infected in A549 cells assessed as decrease in […] cDNA copies at 50 uM incubated for 24 hrs by qRT-PCR analysis; type: functional, organism-based
[6] = Cytotoxicity against human A549 cells assessed as reduction in cell viability incubated for 48 hrs by alamarBlue assay; type: cell-based
Human adenovirus 5 [7] = assay: Antiviral activity against Human adenovirus 5 infected in HEK293beta5 cells coexpressing GFP assessed as inhibition of plaque formation at 10 uM incubated for 7 days relative to control; type: functional; conditions: Human mastadenovirus C, 168 h
[8] = Stability in Syrian hamster serum assessed as parent compound remaining at 1 uM measured after 15 mins by LC-MS/MS analysis; type: ADME, cell-free, Mesocricetus auratus; conditions: for remaining at 0.25 h, 1 µM: read-out: Stability
[9] = Stability in Syrian hamster serum assessed as parent compound remaining at 1 uM measured immediately by LC-MS/MS analysis; type: ADME, cell-free, Mesocricetus auratus; conditions: read-out: Stability
[10] = Stability in Syrian hamster serum assessed as parent compound remaining at 1 uM measured after 30 mins by LC-MS/MS analysis; type: ADME, cell-free, Mesocricetus auratus; conditions: for remaining at 0.5 h, 1 µM: read-out: Stability
[11] = Stability in Syrian hamster serum assessed as parent compound remaining at 1 uM measured after 120 mins by LC-MS/MS analysis; type: ADME, cell-free, Mesocricetus auratus; conditions: read-out: Stability
[12] = Stability in Syrian hamster serum assessed as parent compound remaining at 1 uM measured after 60 mins by LC-MS/MS analysis; type: ADME, cell-free, Mesocricetus auratus; conditions: read-out: Stability
Human adenovirus 5 [13] = assay: Antiviral activity against Human adenovirus 5 infected in A549 cells assessed as decrease in […] cDNA copies incubated for 24 hrs by qRT-PCR analysis; type: functional, organism-based

Row | SMILES | IC50 (Human adenovirus 5 [2]) | remaining at 0.25 h, 1 µM [8] | remaining at 0 min, 1 µM [9] | remaining at 0.5 h, 1 µM [10] | remaining at 2 h, 1 µM [11] | remaining at 1 h, 1 µM [12] | Stability ([8]; 0.25 h, 1 µM) | Stability ([10]; 0.5 h, 1 µM) | Activity (Human adenovirus 5 [1]) | fold change (FC) (Human adenovirus 5 [3]) | Activity (Human betaherpesvirus 5) | selectivity ratio [4] | Activity (Human adenovirus 5 [5]) | CC50 at 48 h [6] | inhibition at 10 µM (Human adenovirus 5 [7]) | Activity (Human adenovirus 5 [13])
1 | CC1CN(C(=O)CC2CCCCC2)CCN1C(=S)Nc1ccc(F)cc1 (stereo not drawn) | 0.6 µM | 117% | 100% | 96.4% | 67.3% | 85% |  |  | Active | 30.5 |  | 238 |  | 143 µM | 100% | 
2 | CC1CN(C(=O)OC(C)(C)C)CCN1C(=S)Nc1ccc(F)cc1 (stereo not drawn) | 1.8 µM | 97.8% | 100% | 102% | 75.4% | 86.5% |  |  | Active | 12.1 |  | 111 |  | 200 µM | 92.9% | 
3 | Nc1ccn(C[C@@H](CO)OCP(=O)(O)O)c(=O)n1.O.O [CIDOFOVIR] | 24.1 µM |  |  |  |  |  |  |  |  | 82.5 |  |  |  | 50.6 µM | 3.51% | 
4 | CC1CN(C(=O)CC2CCCCC2)CCN1C(=S)Nc1ccc(C#N)cc1 (stereo not drawn) | 2.5 µM |  |  |  |  |  |  |  | Active | 9.3 |  | 77.2 |  | 193 µM | 100% | 
5 | CC(C)(C)OC(=O)N1CCN(C(=O)Nc2cc(C(F)(F)F)ccc2Cl)CC1 | 2.3 µM |  |  |  |  |  |  |  | Active | 18.7 | Active | 87 |  | 200 µM | 95% | 
6 | Cc1ccc(NC(=S)N2CCN(C(=O)CC3CCCCC3)CC2C)cc1 (stereo not drawn) | 2.1 µM |  |  |  |  |  |  |  | Active | 39.1 | Active | 58.2 | inactive | 122 µM | 95.8% | 
7 | CC[C@H](C)[C@@H]1NC(=O)CNC(=O)[C@@H]2Cc3c([nH]c4cc(O)ccc34)[S@+]([O-])C[C@H](NC(=O)CNC1=O)C(=O)N[C@@H](CC(N)=O)C(=O)N1C[C@H](O)C[C@H]1C(=O)N[C@@H]([C@@H](C)[C@@H](O)CO)C(=O)N2 |  |  |  |  |  |  |  |  |  |  |  |  |  |  |  | Dose-dependent effect
8 | O=C(c1cc2ccccc2o1)N1CCN(C(=O)Nc2ccccc2[N+](=O)[O-])C(c2ccccc2)C1 (stereo not drawn) |  |  |  |  |  |  |  |  |  | 9.9 |  | 79 |  |  | 100% | 

Now from value to compound, other results behind:

Row | IC50 (Human adenovirus 5 [2]) | remaining at 0.25 h, 1 µM [8] | remaining at 0 min, 1 µM [9] | remaining at 0.5 h, 1 µM [10] | remaining at 2 h, 1 µM [11] | remaining at 1 h, 1 µM [12] | Stability ([8]; 0.25 h, 1 µM) | Stability ([10]; 0.5 h, 1 µM) | SMILES | Activity (Human adenovirus 5 [1]) | fold change (FC) (Human adenovirus 5 [3]) | Activity (Human betaherpesvirus 5) | selectivity ratio [4] | Activity (Human adenovirus 5 [5]) | CC50 at 48 h [6] | inhibition at 10 µM (Human adenovirus 5 [7]) | Activity (Human adenovirus 5 [13])
9 | 2.7 µM |  |  |  |  |  |  |  | CC(C)(C)OC(=O)N1CCN(C(=O)Nc2ccc([N+](=O)[O-])cc2)CC1 | Active | 21.2 | Active | 43.7 | inactive | 118 µM | 91.5% | 
10 | 2.1 µM |  |  |  |  |  |  |  | O=C(Cc1ccccc1)N1CCN(C(=O)Nc2ccccc2[N+](=O)[O-])C(c2ccccc2)C1 (stereo not drawn) | Active | 32.9 | Active | 57.4 |  | 120 µM | 96.9% | 
11 | 5.1 µM | 109% | 100% | 107% | 92.8% | 96.5% |  |  | CC1CN(C(=O)Cc2ccccc2)CCN1C(=S)Nc1cc(C(F)(F)F)cc(C(F)(F)F)c1 (stereo not drawn) | Active | 33.4 | Active | 25.4 | Active |  | 73.4% | Dose-dependent effect
12 | 2 µM |  | 100% |  | 107% | 114% | 142.7% | 139.4% | CC1CN(C(=O)Cc2ccccc2)CCN1C(=S)Nc1ccc([N+](=O)[O-])cc1 (stereo not drawn) | Active | 25.6 | Active | 105 | inactive | 210 µM | 98.2% | 
13 | 1.4 µM |  |  |  |  |  |  |  | O=C(CC1CCCCC1)N1CCN(C(=O)Nc2ccccc2[N+](=O)[O-])C(c2ccccc2)C1 (stereo not drawn) | Active | 15.2 | Active | 80.1 |  | 112 µM | 100% | 
14 | 0.7 µM | 97.2% | 100% | 110% | 100% | 90.5% |  |  | O=C(Cc1ccccc1)N1CCN(C(=S)Nc2cc(C(F)(F)F)cc(C(F)(F)F)c2)C(c2ccccc2)C1 (stereo not drawn) | Active | 1690 |  | 149 |  | 104 µM | 100% | 
15 | 4.6 µM |  |  |  |  |  |  |  | CC1CN(C(=O)Cc2ccccc2)CCN1C(=S)Nc1ccc(C#N)cc1 (stereo not drawn) | Active | 18.4 | Active | 38 | inactive | 175 µM | 98.4% | 
